Reference: paper PMC10372009, “Molecular basis of GDF15 induction and suppression by drugs in cardiomyocytes and cancer cells toward precision medicine” (Scientific Reports, 2023)

Tests used:
Type in all cases: cell-based, human
[1] = system: GDF15; experiment: GDF15 secretion (ELISA) by hiPSC-CMs upon cardiotoxic drug treatment; conditions: 48 h; for fold increase of media concentration of GDF15: sublethal and highest (10 µM) concentrations, normalized by DMSO-only control; for GDF15 protein concentration: 1 µM drug
Text: As many anticancer drugs are cardiotoxic and GDF15 is a well-known biomarker for heart failure, we employed a human induced pluripotent stem cell-derived cardiomyocytes (hiPSC-CMs) model to investigate the effect of drug-induced cardiotoxicity on GDF15 expression in host tissues. To adequately replicate cardiotoxicity using this model, we selected drugs whose cardiotoxic effect in vivo is based on cytotoxicity to cardiomyocytes.
Figure 2 Effect of cardiotoxic drugs on hiPSC-CMs viability and GDF15 secretion and modes of action of applied drugs. (A) hiPSC-CMs viability after 48 h treatment with 20 cardiotoxic drugs. (B) Fold-change of GDF15 expression upon 48 h treatment with 20 cardiotoxic drugs and their reported modes of action. GDF15 expression upon treatment with 10 µM, sublethal drug concentrations and maximal GDF15 induction (from concentration series depicted in (C)). Mean fold-change of 4 biological replicates with a 95% confidence interval were normalized by DMSO-only control. (C) Drug-induced GDF15 expression for different drug concentrations. Fold-change of GDF15 protein concentration upon 48 h treatment with ten cardiotoxic drugs (marked with * in A and B).
(§1) Cardiotoxic drug (SCREEN-WELL® Cardiotoxicity library, BML-2850, ENZO) library was prepared by serial dilution of 10 mM stocks in DMSO to 9 different concentrations ranging from 0.001 to 10 mM, which were further diluted into assay plates to final concentrations ranging from 0.001 to 10 µM. […] The final concentration of DMSO for hiPSC-CMs assay was 0.1%. To investigate the influence of BET inhibitor treatment on doxorubicin induced GDF15 mRNA expression, hiPSC-CMs were pre-treated with 20 nM or 200 nM doxorubicin for 48 h and kept in medium without compound for 24 h before 24 h treatment with either 100 nM BI 894999 or 500 nM OTX015. […] Cancer cell lines were treated with 10 nM, 35 nM or 100 nM of BI 894999 for 4 h or 24 h (Supplementary Table S3).
(§2) For GDF15 mRNA quantification, total RNA was isolated from the cells using an RNeasy kit (Qiagen, 74106) to synthesize cDNA using a Taqman Reverse Transcription kit (Applied Biosystems, N8080234). Quantitative real-time PCR analysis was performed using QuantiNova SYBR Green PCR Kit (Qiagen, 208052) on a CFX96 Real-Time System (Bio-Rad) under the following amplification conditions: 95 °C for 2 min followed by 40 cycles of 95 °C for 5 s and 60 °C for 10 s. The primer sequences are GDF15-F: 5′-[…]-3′, GDF15-R: 5′-[…]-3′, ACTB-F: 5′-[…]-3′ and ACTB-R: 5′-[…]-3′. PCR data were analyzed using a modified relative expression software tool (REST) and the expression level of GDF15 gene was normalized to that of β-actin. For secreted GDF15 protein quantification, cell culture medium was collected after drug treatment and stored at − 20 °C until ELISA was performed using Human GDF-15 ELISA Kit (Abcam, ab155432) according to the manufacturer’s instruction. Resulting GDF15 concentrations were normalized to non-treated control and respective relative cell viability.

[2] = system: GDF15; experiment: GDF15 gene expression of NCI-60 cancer cell lines treated with 15 anticancer drugs (public data, linear regression); conditions: data ref 34; for induction of GDF15 on average: NCI-60 cancer cell lines; for ratio of responsive cell lines (GDF15 induction): all NCI-60 cell lines, responsive: slope > 0.02 and R-squared > 0.5 within 24 h
Text: To get further insights into how chemotherapy influences GDF15 expression in cancer, we analyzed public gene expression data of NCI-60 cancer cell lines treated with 15 different anticancer drugs. We used linear regression to quantify the cell line’s drug-specific responsiveness regarding GDF15 induction and categorized the cell lines as “responsive” or “resistant”. Comparing the number of responsive cell lines per drug, we found the ratio of responsive cell lines ranged from 4% for sirolimus to 71% for sorafenib (Supplementary Figure S2). Drugs with DNA damaging properties tended to induce GDF15 more strongly than drugs with other modes of action.
Figure 3 NCI-60 cell line clustering. (A) Hierarchically clustered correlation matrix of GDF15 gene expression levels by NCI-60 cell lines upon 15 drug treatments. Pearson correlation coefficients were calculated evaluating linear regression slope of GDF15 expression within the first 24 h of drug treatment. Clustering of cell lines was performed using Weighted Pair Group Method with Arithmetic Mean (WPGMA) algorithm based on Pearson correlation coefficients. Four cell line clusters were identified. Tissue types of cell lines are color coded. (B) Drug-specific fraction of responsive NCI-60 cell lines in each identified cell line cluster for 15 anticancer drugs. Responsiveness was assumed when linear regression slope of GDF15 expression within 24 h of drug treatment was > 0.02 and R-squared > 0.5. (C) Predicted basally activated or inhibited pathways for the cell line cluster based on identified differences in gene expression.
We obtained basal gene expression values and mutational status of all cancer cell lines from our in-house cancer cell line database. Gene expression data of NCI-60 after compound treatment, basal protein expression, drug sensitivity data, gene dependency data, metabolite expression and compound specifications such as IC50 values and modes of action were collected from different studies and data bases, as described in the supplementary information.
Each NCI-60 cell line was assigned to an array containing 15 drug-specific linear regression slopes of GDF15 mean fold-change. We calculated the Pearson correlation coefficient for every cell line pair to build a 60 × 60 correlation matrix. For agglomerative hierarchical clustering, we applied a “Weighted Pair Group Method with Arithmetic Mean” (WPGMA) algorithm to the resulting correlation matrix. The identified clusters represent groups of cell lines that are closely positioned to each other in this 15-dimensional data set and therefore have more similarities regarding GDF15 expression upon treatment with the 15 drugs compared to cell lines of other clusters.
Supplementary Materials and Methods
Data collection of cancer cell line properties
Gene expression data of NCI-60 upon treatment with 15 anticancer compounds were collected from NCI-
60 Transcriptional Pharmacodynamics Workbench 11. […]

[3] = system: GDF15; experiment: Doxorubicin-induced GDF15 secretion in hiPSC-CMs, simultaneous treatment with BET inhibitors (ELISA); conditions: simultaneous 100 nM doxorubicin and 0.1 to 1000 nM BET inhibitor, 48 h
Text: (§3) Host cells are known to contribute to elevated GDF15 levels in cachexia patients when exposed to drug toxicity. […] We plotted GDF15 fold-changes against the respective reported half maximal inhibitory concentrations (IC50) of each BET inhibitor for BRD2, BRD3 and BRD4, whenever available. GDF15 fold-change thereby meant the ratio of GDF15 expression induced by doxorubicin only and doxorubicin combined with BET inhibitor normalized to cell viability.
as §1, §2
Supplementary Figure S6. (A) Fold-change of GDF15 secretion by hiPSC-CMs after simultaneous
treatment with doxorubicin and seven BET Inhibitors for 48 h. Normalized to cell viability and non-treated […]

[4] = system: GDF15; experiment: Doxorubicin-induced GDF15 mRNA expression in hiPSC-CMs, successive treatment with BET inhibitors (qPCR)
Text: as §3, §1
as §2, with “β-actin.” for “β-actin. For secreted GDF15 protein quantification, cell culture medium was collected after drug treatment and stored at − 20 °C until ELISA was performed using Human GDF-15 ELISA Kit (Abcam, ab155432) according to the manufacturer’s instruction. Resulting GDF15 concentrations were normalized to non-treated control and respective relative cell viability.”

With `COc1cc(NS(C)(=O)=O)ccc1Nc1c2ccccc2nc2ccccc12` [Amsacrine] as the compound, how does the “fold increase of media concentration of GDF15” value (from here on “fold increase”) [1] read?
The value was “more than threefold”.

Which “fraction of responsive cell lines in cluster B” value ([2]; NCI-60 cluster B) does the source give for `CC(C)C[C@H](NC(=O)[C@H](Cc1ccccc1)NC(=O)c1cnccn1)B(O)O` [Bortezomib] here?
Its value is “all”.

With `Cc1sc2c(c1C)C(c1ccc(Cl)cc1)=N[C@@H](CC(N)=O)c1nnc(C)n1-2` [CPI203] as the compound, how does the “effect on doxorubicin-induced GDF15 overexpression (secretion)” value (“effect … (secretion)” for short) [3] read?
The value was “suppressed”.

Which “fold increase” value [1] does the source give for `CC[C@@]1(O)C(=O)OCc2c1cc1n(c2=O)Cc2cc3ccccc3nc2-1` [Camptothecin] here?
The value was “more than threefold”.

Which GDF15 protein concentration [1] does the source give for `COc1cccc2c1C(=O)c1c(O)c3c(c(O)c1C2=O)C[C@@](O)(C(C)=O)C[C@@H]3O[C@H]1C[C@H](N)[C@H](O)[C@H](C)O1` [Daunorubicin] here?
Its GDF15 protein concentration is “exceeded the upper limit of quantification”.

Which results are given for `COc1cccc2c1C(=O)c1c(O)c3c(c(O)c1C2=O)C[C@@](O)(C(=O)CO)C[C@@H]3O[C@H]1C[C@H](N)[C@H](O)[C@H](C)O1` [Doxorubicin]?
fold increase of media concentration of GDF15 [1]: more than threefold; fraction of responsive cell lines in cluster C ([2]; NCI-60 cluster C): 63.6%; increase of GDF15 expression on RNA level ([4]; doxorubicin treatment (20 or 200 nM)): up to sevenfold

Which “fold increase” value [1] does the source give for `COc1cc([C@@H]2c3cc4c(cc3[C@@H](O[C@@H]3O[C@@H]5CO[C@@H](C)O[C@H]5[C@H](O)[C@H]3O)[C@H]3COC(=O)[C@H]23)OCO4)cc(OC)c1O` [Etoposide] here?
Its value is “more than threefold”.

How did the “effect … (secretion)” value [3] turn out when `COc1cc2c(cc1-c1c(C)noc1C)ncc1[nH]c(=O)n([C@H](C)c3ccccn3)c12` [I-BET151] was run?
Its value is “suppressed”.

`CC(=O)[C@]1(O)Cc2c(O)c3c(c(O)c2[C@@H](O[C@H]2C[C@H](N)[C@H](O)[C@H](C)O2)C1)C(=O)c1ccccc1C3=O` [Idarubicin] was tested. Which GDF15 protein concentration [1] did it give?
The GDF15 protein concentration was “exceeded the upper limit of quantification”.

What about the “fold increase” value [1] of the same compound?
Its value is “more than threefold”.

Which results are given for `Cc1sc2c(c1C)C(c1ccc(Cl)cc1)=N[C@@H](CC(=O)Nc1ccc(O)cc1)c1nnc(C)n1-2` [OTX015]?
effect on doxorubicin-induced GDF15 overexpression (mRNA) ([4]; BET inhibitor given subsequently to doxorubicin): suppressed; effect on doxorubicin-induced GDF15 overexpression (secretion) [3]: suppressed

How did the “effect … (secretion)” value [3] turn out when `COc1ccccc1S(=O)(=O)Nc1ccc2c(c1)CN(C)C(=O)N2` [PFI-1] was run?
Its value is “suppressed”.

`CCN(CC)CCNC(=O)c1c(C)[nH]c(/C=C2\C(=O)Nc3ccc(F)cc32)c1C` [Sunitinib] was tested. Which “induction of GDF15 on average” value [2] did it give?
Its value is “did not lead to notable GDF15 regulation”.

Which “fraction of responsive cell lines in cluster D” value ([2]; NCI-60 cluster D) does the source give for `Nc1ncn([C@@H]2O[C@H](CO)[C@@H](O)[C@H]2O)c(=O)n1` [azacytidine] here?
Its value is “all”.

How did the “ratio of responsive cell lines (GDF15 induction)” value [2] turn out when `CO[C@H]1C[C@@H]2CC[C@@H](C)[C@@](O)(O2)C(=O)C(=O)N2CCCC[C@H]2C(=O)O[C@H]([C@H](C)C[C@@H]2CC[C@@H](O)[C@H](OC)C2)CC(=O)[C@H](C)/C=C(\C)[C@@H](O)[C@@H](OC)C(=O)[C@H](C)C[C@H](C)/C=C/C=C/C=C/1C` [sirolimus] was run?
Its value is 4%.

With `CNC(=O)c1cc(Oc2ccc(NC(=O)Nc3ccc(Cl)c(C(F)(F)F)c3)cc2)ccn1` [sorafenib] as the compound, how does the “induction of GDF15 on average” value [2] read?
Its value is “threefold”.

What about the “fraction of responsive cell lines in cluster A” value ([2]; NCI-60 cluster A) of the same compound?
Its value is “all”.

What about the “ratio of responsive cell lines (GDF15 induction)” value [2] of the same compound?
The value was 71%.
